Measurements taken from paper PMC4585259 (Frontiers in Pharmacology, 2015).
Read-outs that look alike come from different tables or passages of the source. Values belong to the compound of their own block, whether it stands above or below them.

Biological target: T1, rNav1.2 sodium channels (Rattus norvegicus, UniProt P04775)
T1 construct: host or cells: HEK-293
Experiment: QPatch automated patch clamp, inhibition of sodium currents evoked by 5 Hz trains at three extracellular pH values
Assay type: cell-based
Settings: for class of pH-dependence pattern (cluster analysis): Ward's method on 18 variables of affinity, reversibility, onset; for τoffset / τonset: concentration (lidocaine 300 μM, memantine 30 μM); for inhibition: 100 μM
Procedure, shortened: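 Trains of 5 steps from −90 to −10 mV every 20 s. Apparent affinity, onset/offset time constants (single-exponential fits) and reversibility (w−i)/(c−i) were derived from single-concentration data.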

[1] = pH 6.0, single concentration (lidocaine 300 μM, memantine 30 μM), geometric mean of 5, read-out: apparent affinity
[2] = pH 7.3, single concentration (lidocaine 300 μM, memantine 30 μM), geometric mean of 5, read-out: apparent affinity
[3] = pH 8.6, single concentration (lidocaine 300 μM, memantine 30 μM), geometric mean of 5, read-out: apparent affinity
[4] = pH=6.0, cc 100 mM, read-out: Apparent Affinity
[5] = pH=7.3, cc 100 mM, read-out: Apparent Affinity
[6] = pH=8.6, cc 100 mM, read-out: Apparent Affinity

T1 sequence (P04775 whole entry): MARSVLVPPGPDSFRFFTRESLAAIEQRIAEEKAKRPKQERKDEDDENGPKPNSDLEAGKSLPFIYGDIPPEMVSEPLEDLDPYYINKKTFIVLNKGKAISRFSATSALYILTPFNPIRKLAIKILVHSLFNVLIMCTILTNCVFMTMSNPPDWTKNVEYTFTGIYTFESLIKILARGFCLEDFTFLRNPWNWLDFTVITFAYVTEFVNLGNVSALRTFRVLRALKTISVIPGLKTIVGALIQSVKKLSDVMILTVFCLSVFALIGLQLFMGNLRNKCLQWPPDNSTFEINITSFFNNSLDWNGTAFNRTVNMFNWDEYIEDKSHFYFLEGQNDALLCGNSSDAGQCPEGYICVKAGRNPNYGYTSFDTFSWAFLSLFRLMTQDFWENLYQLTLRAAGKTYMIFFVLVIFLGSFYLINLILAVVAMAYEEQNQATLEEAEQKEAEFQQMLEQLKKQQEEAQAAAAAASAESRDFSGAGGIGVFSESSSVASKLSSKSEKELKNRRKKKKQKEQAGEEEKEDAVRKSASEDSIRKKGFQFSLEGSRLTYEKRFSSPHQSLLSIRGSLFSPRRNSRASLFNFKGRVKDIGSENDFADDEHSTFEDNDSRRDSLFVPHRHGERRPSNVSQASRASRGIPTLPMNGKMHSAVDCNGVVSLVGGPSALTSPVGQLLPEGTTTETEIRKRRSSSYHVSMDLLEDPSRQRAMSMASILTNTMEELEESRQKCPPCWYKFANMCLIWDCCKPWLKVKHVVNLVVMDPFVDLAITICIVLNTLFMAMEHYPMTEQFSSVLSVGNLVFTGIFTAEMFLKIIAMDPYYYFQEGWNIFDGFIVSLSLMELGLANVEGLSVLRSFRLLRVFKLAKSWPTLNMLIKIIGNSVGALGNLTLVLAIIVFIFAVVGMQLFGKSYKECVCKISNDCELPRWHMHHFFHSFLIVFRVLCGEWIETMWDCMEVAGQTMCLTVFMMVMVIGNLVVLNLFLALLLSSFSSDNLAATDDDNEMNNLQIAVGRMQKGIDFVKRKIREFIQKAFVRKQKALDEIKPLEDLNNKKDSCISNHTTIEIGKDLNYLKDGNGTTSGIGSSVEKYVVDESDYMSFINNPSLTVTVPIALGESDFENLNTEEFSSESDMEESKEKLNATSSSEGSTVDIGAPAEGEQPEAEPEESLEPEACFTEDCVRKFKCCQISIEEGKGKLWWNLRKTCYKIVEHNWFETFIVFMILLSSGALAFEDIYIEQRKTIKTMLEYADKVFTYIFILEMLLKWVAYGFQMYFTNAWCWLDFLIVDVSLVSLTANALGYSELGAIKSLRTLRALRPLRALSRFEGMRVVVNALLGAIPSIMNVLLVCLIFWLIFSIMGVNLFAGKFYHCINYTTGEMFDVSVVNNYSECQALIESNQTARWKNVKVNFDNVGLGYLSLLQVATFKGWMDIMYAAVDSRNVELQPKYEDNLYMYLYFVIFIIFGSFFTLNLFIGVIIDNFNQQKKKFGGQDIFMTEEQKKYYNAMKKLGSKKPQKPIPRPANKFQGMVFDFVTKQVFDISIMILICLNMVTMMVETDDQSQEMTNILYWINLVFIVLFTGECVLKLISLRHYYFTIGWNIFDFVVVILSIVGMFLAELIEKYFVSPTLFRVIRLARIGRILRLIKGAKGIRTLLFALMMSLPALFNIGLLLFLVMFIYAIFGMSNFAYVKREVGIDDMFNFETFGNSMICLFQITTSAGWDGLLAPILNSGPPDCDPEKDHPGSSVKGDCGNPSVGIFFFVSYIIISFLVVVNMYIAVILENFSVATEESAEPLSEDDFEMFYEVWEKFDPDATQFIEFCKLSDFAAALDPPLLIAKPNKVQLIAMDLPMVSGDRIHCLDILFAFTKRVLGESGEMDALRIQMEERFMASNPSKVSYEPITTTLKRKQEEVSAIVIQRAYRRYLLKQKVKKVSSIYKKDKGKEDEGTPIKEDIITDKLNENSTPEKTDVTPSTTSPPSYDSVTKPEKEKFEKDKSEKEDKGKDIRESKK

fold more potent at neutral pH than at pH = 6.0 (30 μM): 3.5 fold
fold more potent at neutral pH than at pH = 8.6 (30 μM): 5.9 fold
class of pH-dependence pattern (cluster analysis): Class E
effect of alkalic pH on onset/offset kinetics (in words): decelerated onset
alkalization-induced recovery (neutral-to-alkalic solution exchange, in words): prominent alkalization-induced recovery
reversibility at all three pH values (pH 6.0, 7.3 and 8.6): below 0.6
τoffset (pH 6.0): 17.60 s
τonset (pH 6.0): 11.80 s
Kd [1]: 30.8 µM
τoffset (pH 7.3): 20.40 s
τonset (pH 7.3): 18.00 s
Kd [2]: 8.87 µM
τoffset (pH 8.6): 38.60 s
τonset (pH 8.6): 30.00 s
Kd [3]: 52.4 µM
Compound: Cc1nc2sccn2c(=O)c1CCN1CCC(=C(c2ccc(F)cc2)c2ccc(F)cc2)CC1 [ritanserin]
Ratio Reversibility (pH 6.0/7.3, cc 30 mM): 0.981
Ratio Tau Offset (pH 6.0/7.3, cc 30 mM): 0.863
Ratio Tau Onset (pH 6.0/7.3, cc 30 mM): 0.656
log Ratio App Aff (pH 6.0/7.3, cc 30 mM): 0.541
Ratio Reversibility (pH 6.0/8.6, cc 30 mM): 4.330
Ratio Tau Offset (pH 6.0/8.6, cc 30 mM): 0.456
Ratio Tau Onset (pH 6.0/8.6, cc 30 mM): 0.393
log Ratio App Aff (pH 6.0/8.6, cc 30 mM): -0.230
Ratio Reversibility (pH 7.3/8.6, cc 30 mM): 4.412
Ratio Tau Offset (pH 7.3/8.6, cc 30 mM): 0.528
Ratio Tau Onset (pH 7.3/8.6, cc 30 mM): 0.600
log Ratio App Aff (pH 7.3/8.6, cc 30 mM): -0.772
Reversibility (pH=6.0, cc 30 mM): 0.36
Kd (pH=6.0, cc 30 mM, read-out: Apparent Affinity): 30.8 µM
Reversibility (pH=7.3, cc 30 mM): 0.37
Kd (pH=7.3, cc 30 mM, read-out: Apparent Affinity): 8.87 µM
Reversibility (pH=8.6, cc 30 mM): 0.08
Kd (pH=8.6, cc 30 mM, read-out: Apparent Affinity): 52.4 µM

inhibition (pH 6.0): 23%
inhibition (pH 7.3): 42%
inhibition (pH 8.6): 79%
class of pH-dependence pattern (cluster analysis): Class F
τoffset (pH 6.0): 18.60 s
τonset (pH 6.0): 9.00 s
Kd [1]: 334 µM
τoffset (pH 7.3): 15.00 s
τonset (pH 7.3): 10.00 s
Kd [2]: 137 µM
τoffset (pH 8.6): 20.80 s
τonset (pH 8.6): 7.80 s
Kd [3]: 26.8 µM
Compound: C[Si](C)(Cc1ccc(F)cc1)CN1CCCCC1 [silperisone]
Ratio Reversibility (pH 6.0/7.3, cc 100 mM): 0.877
Ratio Tau Offset (pH 6.0/7.3, cc 100 mM): 1.240
Ratio Tau Onset (pH 6.0/7.3, cc 100 mM): 0.900
log Ratio App Aff (pH 6.0/7.3, cc 100 mM): 0.387
Ratio Reversibility (pH 6.0/8.6, cc 100 mM): 1.714
Ratio Tau Offset (pH 6.0/8.6, cc 100 mM): 0.894
Ratio Tau Onset (pH 6.0/8.6, cc 100 mM): 1.154
log Ratio App Aff (pH 6.0/8.6, cc 100 mM): 1.096
Ratio Reversibility (pH 7.3/8.6, cc 100 mM): 1.955
Ratio Tau Offset (pH 7.3/8.6, cc 100 mM): 0.721
Ratio Tau Onset (pH 7.3/8.6, cc 100 mM): 1.282
log Ratio App Aff (pH 7.3/8.6, cc 100 mM): 0.709
Reversibility (pH=6.0, cc 100 mM): 0.80
Kd [4]: 334 µM
Reversibility (pH=7.3, cc 100 mM): 0.92
Kd [5]: 137 µM
Reversibility (pH=8.6, cc 100 mM): 0.47
Kd [6]: 26.8 µM

decrease of recovery at pH = 8.6 as compared to pH = 7.3: 1.35 fold
class of pH-dependence pattern (cluster analysis): Class F
τoffset (pH 6.0): 16.20 s
τonset (pH 6.0): 7.40 s
Kd [1]: 373 µM
τoffset (pH 7.3): 12.90 s
τonset (pH 7.3): 7.20 s
Kd [2]: 275 µM
τoffset (pH 8.6): 12.60 s
τonset (pH 8.6): 5.20 s
Kd [3]: 107 µM
KD app, effect of acidic medium (pH = 6.0 vs neutral, increased KD app = decreased apparent affinity): MEM,MEX,TOL↑
Compound: Cc1ccc(C(=O)C(C)CN2CCCCC2)cc1 (centres unmarked) [tolperisone]
Ratio Reversibility (pH 6.0/7.3, cc 100 mM): 0.699
Ratio Tau Offset (pH 6.0/7.3, cc 100 mM): 1.256
Ratio Tau Onset (pH 6.0/7.3, cc 100 mM): 1.028
log Ratio App Aff (pH 6.0/7.3, cc 100 mM): 0.132
Ratio Reversibility (pH 6.0/8.6, cc 100 mM): 0.944
Ratio Tau Offset (pH 6.0/8.6, cc 100 mM): 1.286
Ratio Tau Onset (pH 6.0/8.6, cc 100 mM): 1.423
log Ratio App Aff (pH 6.0/8.6, cc 100 mM): 0.542
Ratio Reversibility (pH 7.3/8.6, cc 100 mM): 1.349
Ratio Tau Offset (pH 7.3/8.6, cc 100 mM): 1.024
Ratio Tau Onset (pH 7.3/8.6, cc 100 mM): 1.385
log Ratio App Aff (pH 7.3/8.6, cc 100 mM): 0.410
Reversibility (pH=6.0, cc 100 mM): 0.65
Kd [4]: 373 µM
Reversibility (pH=7.3, cc 100 mM): 0.93
Kd [5]: 275 µM
Reversibility (pH=8.6, cc 100 mM): 0.69
Kd [6]: 107 µM

Compound: COc1ccc(C(CN(C)C)C2(O)CCCCC2)cc1 (centres unmarked) [venlafaxine]
Kd (Apparent Affinity, pH=6.0, cc 100 mM): 810 µM
Kd (Apparent Affinity, pH=7.3, cc 100 mM): 539 µM
Kd (Apparent Affinity, pH=8.6, cc 100 mM): 174 µM
class of pH-dependence pattern (cluster analysis): Class D
Kd (apparent affinity, pH 6.0, single concentration (lidocaine 300 μM, memantine 30 μM), geometric mean of 5): 810 µM
Kd (apparent affinity, pH 7.3, single concentration (lidocaine 300 μM, memantine 30 μM), geometric mean of 5): 539 µM
Kd (apparent affinity, pH 8.6, single concentration (lidocaine 300 μM, memantine 30 μM), geometric mean of 5): 174 µM
inhibition at 100 µM (pH 6): < 25%
Ratio Reversibility (pH 6.0/7.3, cc 100 mM): 0.250
Ratio Tau Offset (pH 6.0/7.3, cc 100 mM): 1.446
Ratio Tau Onset (pH 6.0/7.3, cc 100 mM): 1.639
log Ratio App Aff (pH 6.0/7.3, cc 100 mM): 0.177
Ratio Reversibility (pH 6.0/8.6, cc 100 mM): 0.250
Ratio Tau Offset (pH 6.0/8.6, cc 100 mM): 1.330
Ratio Tau Onset (pH 6.0/8.6, cc 100 mM): 1.405
log Ratio App Aff (pH 6.0/8.6, cc 100 mM): 0.669
τoffset (pH 6.0): 13.30 s
τonset (pH 6.0): 11.80 s
inhibition at 100 µM (pH 7.3): < 25%
Ratio Reversibility (pH 7.3/8.6, cc 100 mM): 0.999
Ratio Tau Offset (pH 7.3/8.6, cc 100 mM): 0.920
Ratio Tau Onset (pH 7.3/8.6, cc 100 mM): 0.857
log Ratio App Aff (pH 7.3/8.6, cc 100 mM): 0.492
τoffset (pH 7.3): 9.20 s
τonset (pH 7.3): 7.20 s
τoffset (pH 8.6): 10.00 s
τonset (pH 8.6): 8.40 s
effect of acidic pH on recovery (pH = 6.0 vs 7.3, in words): decreased recovery
Reversibility (pH=6.0, cc 100 mM): 0.18
Reversibility (pH=7.3, cc 100 mM): 0.73
Reversibility (pH=8.6, cc 100 mM): 0.73
